# Measured values from patent US12729186B2, “Prodrugs for sustained releasing therapeutic agents and uses thereof” (LIANGJIANG MEDICINE CO., LTD., priority 2020, dated 2026).
# Assay: Drug release assay (hydrolysis rate test in pH 7.4 / pH 2.0 buffer, HPLC)
# Type: physicochemical
# Conditions: for Hydrolysis constant Kh pH 2.0 / Hydrolysis constant Kh pH 7.4: Kh=-ln[100%-Release rate (%)]/t; for Release rate (%) pH 2.0 (6 h): pH 2.0 buffer solution; for Release rate (%) pH 2.0 (6 h) / Release rate (%) pH 7.4 (0.5 h) / Release rate (%) pH 7.4 (6 h): 37° C., 200 rpm, residual content relative to 0 h by HPLC; for Release rate (%) pH 7.4 (0.5 h) / Release rate (%) pH 7.4 (6 h): pH 7.4 buffer solution
# Procedure: Preparation of pH2.0 Buffer Solution
# Preparation of pH7.4 Buffer Solution
# Method of Hydrolysis Rate Test
# The compounds were dissolved in pH7.4/pH2.0 buffer solution, placed in a constant temperature shaker at 37° C. and 200 rpm, and sampled at 0 h, 0.5 h and 6 h respectively. The residual contents of the compounds relative to 0 h were tested at each time point.
# The release rates (%) were calculated using the following equation: Release rate (%)=[A(0h)−A(xh)]/A(0h)×100%, (x=0, 0.5, 6), A(xh) is the peak area of compounds tested by HPLC at the indicated time point.
# The hydrolysis constants (Kh) were calculated using the following equation: Hydrolysis constant Kh=−ln[100%−Release rate (%)]/t Results
Release rate (%) pH 2.0 (6 h),Release rate (%) pH 7.4 (0.5 h),Release rate (%) pH 7.4 (6 h),SMILES,Hydrolysis constant Kh pH 2.0,Hydrolysis constant Kh pH 7.4
37%,12.0%,54%,"CCCCC1CCN(c2ccc(CCOC(=O)n3cc(F)c(=O)[nH]c3=O)cc2)CC1 [Example 10, 4-(4-Butylpiperidin-1-yl)phenethyl 5-fluoro-2,4-dioxo-3,4-dihydropyrimidine-1(2H)-carboxylate]",0.077,0.256
0%,5.4%,64%,"CCCCN(CCCC)c1ccc(N2CCC(CCOC(=O)OCn3cc(F)c(=O)[nH]c3=O)CC2)cc1 [Example 1, 2-(1-(4-(Dibutylamino)phenyl)piperidin-4-yl)ethyl ((5-fluoro-2,4-dioxo-3,4-dihydropyrimidin-1(2H)-yl)methyl) carbonate]",<0.001,0.111
16%,99.3%,92%,"O=C(OCn1cc(F)c(=O)[nH]c1=O)Oc1ccc(C2CCN(CC(c3ccccc3)c3ccccc3)CC2)cc1 [Example 7, 4-(1-(2,2-Diphenylethyl)piperidin-4-yl)phenyl ((5-fluoro-2,4-dioxo-3,4-dihydropyrimidin-1(2H)-yl)methyl) carbonate]",0.029,9.924
18%,82.8%,75%,"CCCc1ccc(N2CCC(Cc3ccc(OC(=O)OCn4cc(F)c(=O)[nH]c4=O)cc3)CC2)cc1 [Example 6, (5-Fluoro-2,4-dioxo-3,4-dihydropyrimidin-1(2H)-yl)methyl (4-((1-(4-propylphenyl)piperidin-4-yl)methyl)phenyl) carbonate]",0.033,3.521
15%,89.5%,90%,"O=C(OCn1cc(F)c(=O)[nH]c1=O)Oc1ccc(CC2CCN(C(c3ccccc3)c3ccccc3)CC2)cc1 [Example 9, 4-((1-Benzhydrylpiperidin-4-yl)methyl)phenyl ((5-fluoro-2,4-dioxo-3,4-dihydropyrimidin-1(2H)-yl)methyl) carbonate]",0.027,4.508
21%,82.7%,98%,"Cc1cc(C)cc(N2CCC(c3ccc(OC(=O)OCn4cc(F)c(=O)[nH]c4=O)cc3)CC2)c1 [Example 4, 4-(1-(3,5-Dimethylphenyl)piperidin-4-yl)phenyl ((5-fluoro-2,4-dioxo-3,4-dihydropyrimidin-1(2H)-yl)methyl) carbonate]",0.039,3.509
38%,69.5%,89%,"CCCN(CCC)c1ccc(-c2ccc(OC(=O)OCn3cc(F)c(=O)[nH]c3=O)cc2)cc1 [Example 2, 4′-(Dipropylamino)-[1,1′-biphenyl]-4-yl ((5-fluoro-2,4-dioxo-3,4-dihydropyrimidin-1(2H)-yl)methyl) carbonate]",0.080,2.375
56%,94.6%,95%,"CCCc1ccc(N2CCc3cc(OC(=O)OCn4cc(F)c(=O)[nH]c4=O)ccc3C2)cc1 [Example 5, (5-Fluoro-2,4-dioxo-3,4-dihydropyrimidin-1(2H)-yl)methyl (2-(4-propylphenyl)-1,2,3,4-tetrahydroisoquinolin-6-yl) carbonate]",0.137,5.838

# The next lines start with the compound.
SMILES,Release rate (%) pH 2.0 (6 h),Release rate (%) pH 7.4 (0.5 h),Release rate (%) pH 7.4 (6 h),Hydrolysis constant Kh pH 2.0,Hydrolysis constant Kh pH 7.4
"CCc1c2c(nc3ccc(OC(=O)CN(C4CCCCC4)C4CCCCC4)cc13)-c1cc3c(c(=O)n1C2)COC(=O)[C@]3(O)CC [Example 19, (S)-4,11-diethyl-4-hydroxy-3,14-dioxo-3,4,12,14-tetrahydro-1H-pyrano[3′,4′:6,7]indolizino[1,2-b]quinolin-9-yl dicyclohexylglycinate]",21.8%,35.1%,100%,0.041,0.865
"COc1ccc(OC(=O)OCn2cc(F)c(=O)[nH]c2=O)cc1 [Example 25, (5-Fluoro-2,4-dioxo-3,4-dihydropyrimidin-1(2H)-yl)methyl (4-methoxyphenyl) carbonate]",40.5%,20.2%,61.3%,0.151,0.451
"CCCCCCCN1CCC(COC(=O)Oc2ccc3nc4c(c(CC)c3c2)Cn2c-4cc3c(c2=O)COC(=O)[C@]3(O)CC)CC1 [Example 18, (S)-4,11-diethyl-4-hydroxy-3,14-dioxo-3,4,12,14-tetrahydro-1H-pyrano[3′,4′:6,7]indolizino[1,2-b]quinolin-9-yl ((1-heptylpiperidin-4-yl)methyl) carbonate]",0.3%,8.8%,11.9%,<0.001,0.184
"Cn1nnc2c(C(=O)NCc3ccc(CC4CCN(C(c5ccccc5)c5ccccc5)CC4)cc3)ncn2c1=O [Example 22, N-(4-((1-benzhydrylpiperidin-4-yl)methyl)benzyl)-3-methyl-4-oxo-3,4-dihydroimidazo[5,1-d][1,2,3,5]tetrazine-8-carboxamide]",0%,12.5%,85.4%,<0.001,0.267
"CCCCN(CCCC)c1ccc(N2CCC(CCOC(=O)n3cc(F)c(=O)[nH]c3=O)CC2)cc1 [Example 11, 2-(1-(4-(Dibutylamino)phenyl)piperidin-4-yl)ethyl 5-fluoro-2,4-dioxo-3,4-dihydropyrimidine-1(2H)-carboxylate]",33%,5.7%,83%,0.067,0.117
"CCCCN1CCC(c2ccc(OC(=O)Oc3ccc4nc5c(c(CC)c4c3)Cn3c-5cc4c(c3=O)COC(=O)[C@]4(O)CC)cc2)CC1 [Example 17, (S)-4-(1-butylpiperidin-4-yl)phenyl (4,11-diethyl-4-hydroxy-3,14-dioxo-3,4,12,14-tetrahydro-1H-pyrano[3′,4′:6,7]indolizino[1,2-b]quinolin-9-yl) carbonate]",43.6%,4.7%,57.4%,0.095,0.096
"CCCCCCOC(=O)OCn1cc(F)c(=O)[nH]c1=O [Example 24, (5-Fluoro-2,4-dioxo-3,4-dihydropyrimidin-1(2H)-yl)methyl hexyl carbonate]",0%,4.6%,55.7%,<0.001,0.094
"CCc1c2c(nc3ccc(OC(=O)NCC4CCCN4C(c4ccccc4)c4ccccc4)cc13)-c1cc3c(c(=O)n1C2)COC(=O)[C@]3(O)CC (stereo partly drawn) [Example 16, (S)-4,11-diethyl-4-hydroxy-3,14-dioxo-3,4,12,14-tetrahydro-1H-pyrano[3′,4′:6,7]indolizino[1,2-b]quinolin-9-yl ((1-benzhydrylpyrrolidin-2-yl)methyl)carbamate]",0.4%,96.2%,100%,<0.001,6.540
"COc1cccc2c1C(=O)c1c(O)c3c(c(O)c1C2=O)C[C@@](O)(C(C)=O)C[C@@H]3O[C@H]1C[C@H](NC(=O)Oc2ccc(CN3CCN(C)CC3)cc2)[C@H](OC(C)=O)[C@H](C)O1 [Example 23, (2S,3S,4S,6R)-6-(((1S,3S)-3-acetyl-3,5,12-trihydroxy-10-methoxy-6,11-dioxo-1,2,3,4,6,11-hexahydrotetracen-1-yl)oxy)-2-methyl-4-(((4-((4-methylpiperazin-1-yl)methyl)phenoxy)carbonyl)amino)tetrahydro-2H-pyran-3-yl acetate]",2.5%,7.2%,70.8%,0.004,0.149
"CC[C@@]1(O)C(=O)OCc2c1cc1n(c2=O)Cc2cc3cc(OC(=O)CC4CCN(CC(c5ccccc5)c5ccccc5)CC4)ccc3nc2-1 [Example 13, (S)-4-ethyl-4-hydroxy-3,14-dioxo-3,4,12,14-tetrahydro-1H-pyrano[3′,4′:6,7]indolizino[1,2-b]quinolin-9-yl 2-(1-(2,2-diphenylethyl)piperidin-4-yl)acetate]",0.5%,2.1%,23.3%,<0.001,0.042
